Where two headings read alike, the source gives them in different places.
Key:
Format in all cases: cell-based
[1] = molecular target: T1, rat α1B+α2b+β1b channels (N-type channels) (Rattus norvegicus, UniProt Q02294); experiment: Whole cell patch recordings, N-type calcium channel block (Examples 1 and 4); settings: block of N-type calcium channels, HEK cells, 5 mM barium as charge carrier
T1 construct: expressed in transfected cells
Method: Antagonist activity was measured using whole cell patch recordings on human embryonic kidney cells either stably or transiently expressing rat α1B+α2b+β1b channels (N-type channels) with 5 mM barium as a charge carrier.
For transient expression, host cells, such as human embryonic kidney cells, HEK 293 (ATCC# CRL 1573) were grown in standard DMEM medium supplemented with 2 mM glutamine and 10% fetal bovine serum. HEK 293 cells were transfected by a standard calcium-phosphate-DNA coprecipitation method using the rat α1B+β1b+α2δ N-type calcium channel subunits in a vertebrate expression vector (for example, see Current Protocols in Molecular Biologyl ).
After an incubation period of from 24 to 72 hrs the culture medium was removed and replaced with external recording solution (see below). Whole cell patch clamp experiments were performed using an Axopatch 200B amplifier (Axon Instruments, Burlingame, Calif.) linked to an IBM compatible personal computer equipped with pCLAMP software. Borosilicate glass patch pipettes (Sutter Instrument Co., Novato, Calif.) were polished (Microforge, Narishige, Japan) to a resistance of about 4 MΩ when filled with cesium methanesulfonate internal solution (composition in MM: 109 CsCH3SO4, 4 MgCl2, 9 EGTA, 9 HEPES, pH 7.2). Cells were bathed in 5 mM Ba^++ (in mM: 5 BaCl2, 1 MgCl2, 10 HEPES, 40 tetraethylammonium chloride, 10 glucose, 87.5 CsCl pH 7.2). Current data shown were elicited by a train of 100 ms test pulses at 0.066 Hz from −100 mV and/or −80 mV to various potentials (min. −20 mV, max. +30 mV). Drugs were perfused directly into the vicinity of the cells using a microperfusion system.
Normalized dose-response curves were fit (Sigmaplot 4.0, SPSS Inc., Chicago, Ill.) by the Hill equation to determine IC50 values. Steady-state inactivation curves were plotted as the normalized test pulse amplitude following 5 s inactivating prepulses at +10 mV increments. Inactivation curves were fit (Sigmaplot 4.0) with the Boltzman equation, Ipeak (normalized)=1/(1+exp((V−Vh)z/25.6)), where V and Vh are the conditioning and half inactivation potentials, respectively, and z is the slope factor.

[2] = molecular target: P/Q-type channels (α1A+α2δ+β1b cDNA subunits) (UniProt P54282); experiment: Whole cell patch clamp, tonic and frequency dependent block, P/Q-type channels in HEK 293 (Example 5)
Method: (§1) N-type calcium channel blocking activity was assayed in human embryonic kidney cells, HEK 293, stably transfected with the rat brain N-type calcium channel subunits (α1B+α2δ+β1b cDNA subunits). Alternatively, N-type calcium channels (α1B+α2δ+β1b cDNA subunits), L-type channels (α1C+α2δ+β1b cDNA subunits) and P/Q-type channels (α1A+α2δ+β1b cDNA subunits) were transiently expressed in HEK 293 cells. Briefly, cells were cultured in Dulbecco's modified eagle medium (DMEM) supplemented with 10% fetal bovine serum, 200 U/ml penicillin and 0.2 mg/ml streptomycin at 37° C. with 5% CO2. At 85% confluency cells were split with 0.25% trypsin/1 mM EDTA and plated at 10% confluency on glass coverslips. At 12 hours the medium was replaced and the cells transiently transfected using a standard calcium phosphate protocol and the appropriate calcium channel cDNAs. Fresh DMEM was supplied and the cells transferred to 28° C./5% CO2. Cells were incubated for 1 to 2 days to whole cell recording.
(§2) Whole cell patch clamp experiments were performed using an Axopatch 200B amplifier (Axon Instruments, Burlingame, Calif.) linked to a personal computer equipped with pCLAMP software. The external and internal recording solutions contained, respectively, 5 mM BaCl2, 1 mM MgCl2, 10 mM HEPES, 40 mM TEACl, 10 mM glucose, 87.5 mM CsCl (pH 7.2) and 108 mM CsMS, 4 mM MgCl2, 9 mM EGTA, 9 mM HEPES (pH 7.2). Currents were typically elicited from a holding potential of −80 mV to +10 mV using Clampex software (Axon Instruments). Typically, currents were first elicited with low frequency stimulation (0.03 Hz) and allowed to stabilize prior to application of the compounds. The compounds were then applied during the low frequency pulse trains for two to three minutes to assess tonic block, and subsequently the pulse frequency was increased to 0.2 Hz to assess frequency dependent block. Data were analyzed using Clampfit (Axon Instruments) and SigmaPlot 4.0 (Jandel Scientific).
(§3) Tables 2 and 3 show the results of similar experiments conducted with P/Q-type and L-type channels expressed in HEK 293 cells.

[3] = molecular target: T2, N-type calcium channels (α1B+α2δ+β1b cDNA subunits) (Rattus norvegicus, UniProt Q02294); experiment: Whole cell patch clamp, tonic and frequency dependent block, N-type channels in HEK 293 (Example 5); settings: for % Block (100 nM) 0.03 Hz: 0.03 Hz (tonic block); for % Block (100 nM) 0.2 Hz: 0.2 Hz (frequency dependent block)
T2 construct: expressed in transfected cells
T2 sequence (Q02294 whole entry): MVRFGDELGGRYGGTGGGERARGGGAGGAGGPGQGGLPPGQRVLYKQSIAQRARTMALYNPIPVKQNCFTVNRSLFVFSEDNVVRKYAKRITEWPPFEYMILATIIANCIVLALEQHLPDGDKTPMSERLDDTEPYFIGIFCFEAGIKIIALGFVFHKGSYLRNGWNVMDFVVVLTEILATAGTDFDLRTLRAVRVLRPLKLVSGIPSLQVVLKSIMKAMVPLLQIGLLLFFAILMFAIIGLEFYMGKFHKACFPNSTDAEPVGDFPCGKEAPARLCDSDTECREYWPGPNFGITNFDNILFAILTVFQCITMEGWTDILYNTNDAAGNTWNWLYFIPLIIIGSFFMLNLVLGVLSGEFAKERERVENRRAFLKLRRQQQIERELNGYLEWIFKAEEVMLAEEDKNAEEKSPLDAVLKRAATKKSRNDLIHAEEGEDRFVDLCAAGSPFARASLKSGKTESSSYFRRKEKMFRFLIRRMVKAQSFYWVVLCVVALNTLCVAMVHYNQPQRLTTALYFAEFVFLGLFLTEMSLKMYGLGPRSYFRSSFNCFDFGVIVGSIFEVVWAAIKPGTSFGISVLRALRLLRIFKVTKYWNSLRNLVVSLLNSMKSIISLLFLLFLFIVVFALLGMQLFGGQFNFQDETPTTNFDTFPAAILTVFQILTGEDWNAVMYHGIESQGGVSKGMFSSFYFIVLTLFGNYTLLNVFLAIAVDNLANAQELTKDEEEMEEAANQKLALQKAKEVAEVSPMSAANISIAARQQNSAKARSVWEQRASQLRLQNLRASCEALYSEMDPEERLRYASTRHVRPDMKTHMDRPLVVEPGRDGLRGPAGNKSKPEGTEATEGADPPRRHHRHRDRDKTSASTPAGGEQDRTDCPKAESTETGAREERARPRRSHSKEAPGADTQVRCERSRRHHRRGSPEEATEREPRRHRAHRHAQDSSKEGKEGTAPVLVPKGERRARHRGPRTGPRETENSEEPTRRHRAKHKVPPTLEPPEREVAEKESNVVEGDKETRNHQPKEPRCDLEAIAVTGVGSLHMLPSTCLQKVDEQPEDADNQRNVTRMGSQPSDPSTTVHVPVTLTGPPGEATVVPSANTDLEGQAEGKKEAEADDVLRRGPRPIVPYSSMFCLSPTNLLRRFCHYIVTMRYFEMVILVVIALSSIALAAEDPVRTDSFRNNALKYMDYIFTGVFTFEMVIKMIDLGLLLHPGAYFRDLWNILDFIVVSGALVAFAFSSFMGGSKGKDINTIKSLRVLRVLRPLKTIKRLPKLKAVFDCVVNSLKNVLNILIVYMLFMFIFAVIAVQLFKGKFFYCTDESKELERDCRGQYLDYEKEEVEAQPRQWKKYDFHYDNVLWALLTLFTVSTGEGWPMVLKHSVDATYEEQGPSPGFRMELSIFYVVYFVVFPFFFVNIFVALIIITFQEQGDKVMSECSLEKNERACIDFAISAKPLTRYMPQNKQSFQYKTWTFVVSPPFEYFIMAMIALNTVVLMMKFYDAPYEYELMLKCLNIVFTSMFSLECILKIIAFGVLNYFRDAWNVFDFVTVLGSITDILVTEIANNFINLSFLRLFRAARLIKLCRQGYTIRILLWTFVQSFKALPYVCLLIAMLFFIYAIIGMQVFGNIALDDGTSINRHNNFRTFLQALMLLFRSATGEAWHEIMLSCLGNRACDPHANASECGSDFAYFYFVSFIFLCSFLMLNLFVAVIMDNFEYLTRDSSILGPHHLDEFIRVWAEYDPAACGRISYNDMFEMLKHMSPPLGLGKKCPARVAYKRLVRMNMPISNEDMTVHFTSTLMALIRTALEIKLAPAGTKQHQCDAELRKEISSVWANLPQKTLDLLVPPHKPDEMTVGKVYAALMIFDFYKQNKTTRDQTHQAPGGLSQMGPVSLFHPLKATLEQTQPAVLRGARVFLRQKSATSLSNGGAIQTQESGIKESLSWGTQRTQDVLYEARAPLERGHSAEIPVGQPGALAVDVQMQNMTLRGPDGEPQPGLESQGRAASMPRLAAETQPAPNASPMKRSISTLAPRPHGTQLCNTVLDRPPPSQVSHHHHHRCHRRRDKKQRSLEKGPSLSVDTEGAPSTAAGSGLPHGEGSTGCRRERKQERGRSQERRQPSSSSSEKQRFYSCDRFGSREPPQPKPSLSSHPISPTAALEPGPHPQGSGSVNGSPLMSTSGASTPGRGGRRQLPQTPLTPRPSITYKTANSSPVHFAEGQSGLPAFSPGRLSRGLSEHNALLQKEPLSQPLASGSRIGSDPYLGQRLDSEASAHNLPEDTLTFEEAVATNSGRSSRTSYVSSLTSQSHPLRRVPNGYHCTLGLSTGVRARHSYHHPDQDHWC
T2 sequence (P54290 25-944 partner limits assumed): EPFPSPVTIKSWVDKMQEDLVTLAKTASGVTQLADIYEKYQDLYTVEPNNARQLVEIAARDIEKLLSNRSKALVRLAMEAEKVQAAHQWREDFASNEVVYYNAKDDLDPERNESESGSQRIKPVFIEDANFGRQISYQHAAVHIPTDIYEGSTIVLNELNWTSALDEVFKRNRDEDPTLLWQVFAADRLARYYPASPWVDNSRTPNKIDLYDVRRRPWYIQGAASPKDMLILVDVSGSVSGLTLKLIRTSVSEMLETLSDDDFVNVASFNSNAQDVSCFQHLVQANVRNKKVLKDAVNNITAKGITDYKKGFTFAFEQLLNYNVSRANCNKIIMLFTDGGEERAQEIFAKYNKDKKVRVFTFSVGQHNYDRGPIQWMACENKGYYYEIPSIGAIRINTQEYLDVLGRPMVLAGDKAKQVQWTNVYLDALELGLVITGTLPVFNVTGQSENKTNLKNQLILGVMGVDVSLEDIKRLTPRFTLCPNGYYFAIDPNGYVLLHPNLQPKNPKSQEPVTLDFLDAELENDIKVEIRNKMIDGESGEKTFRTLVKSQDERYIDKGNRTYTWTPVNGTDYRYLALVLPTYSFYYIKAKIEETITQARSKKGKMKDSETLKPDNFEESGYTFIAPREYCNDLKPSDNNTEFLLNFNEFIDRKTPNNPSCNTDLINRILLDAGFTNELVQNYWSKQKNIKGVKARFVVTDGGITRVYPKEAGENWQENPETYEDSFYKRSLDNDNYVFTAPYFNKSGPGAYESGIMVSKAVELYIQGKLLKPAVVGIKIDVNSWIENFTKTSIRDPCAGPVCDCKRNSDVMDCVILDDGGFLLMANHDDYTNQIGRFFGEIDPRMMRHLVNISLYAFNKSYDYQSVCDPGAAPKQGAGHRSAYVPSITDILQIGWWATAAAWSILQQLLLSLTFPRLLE
T2 sequence (P54290 945-1091 partner limits assumed): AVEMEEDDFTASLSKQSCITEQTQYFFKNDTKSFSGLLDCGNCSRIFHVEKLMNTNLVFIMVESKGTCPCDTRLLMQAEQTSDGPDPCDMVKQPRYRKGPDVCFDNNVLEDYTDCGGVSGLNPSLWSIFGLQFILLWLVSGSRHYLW
T2 sequence (P54283 whole entry partner): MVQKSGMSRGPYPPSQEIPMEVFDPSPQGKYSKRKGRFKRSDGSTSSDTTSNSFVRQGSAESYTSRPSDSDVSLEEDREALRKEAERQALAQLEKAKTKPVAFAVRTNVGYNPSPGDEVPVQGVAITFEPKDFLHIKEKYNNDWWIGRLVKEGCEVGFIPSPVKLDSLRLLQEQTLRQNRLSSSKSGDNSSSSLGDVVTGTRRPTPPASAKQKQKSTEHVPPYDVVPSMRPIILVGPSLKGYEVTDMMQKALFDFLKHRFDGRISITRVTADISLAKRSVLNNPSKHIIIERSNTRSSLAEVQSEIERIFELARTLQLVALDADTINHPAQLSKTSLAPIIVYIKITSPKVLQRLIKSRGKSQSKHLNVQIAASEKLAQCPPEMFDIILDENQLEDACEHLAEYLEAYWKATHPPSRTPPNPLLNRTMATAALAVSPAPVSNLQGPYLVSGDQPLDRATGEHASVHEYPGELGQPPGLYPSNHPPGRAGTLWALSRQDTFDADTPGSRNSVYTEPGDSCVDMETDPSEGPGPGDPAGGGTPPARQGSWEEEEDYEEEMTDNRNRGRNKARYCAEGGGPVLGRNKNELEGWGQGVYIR
Method: as §1, §2

[4] = molecular target: T3, L-type channels (α1C+α2δ+β1b cDNA subunits) (UniProt P22002); experiment: Whole cell patch clamp, tonic and frequency dependent block, L-type channels in HEK 293 (Example 5)
T3 construct: other: α1C (L-type), 100 nM, 0.03 Hz; other: α1C (L-type), 100 nM, 0.2 Hz; other: α1C (L-type), 0.03 Hz; other: α1C (L-type), 0.2 Hz
Method: as §1, §2, §3

[5] = Table 4 summary, 0.2 Hz, P/Q-type, unit not given in Table 4 (μM in Table 2), read-out: P/Q (IC50 values)
[6] = α1A (P/Q-type), 0.03 Hz, read-out: Estimated IC50 (μM) 0.03 Hz
[7] = α1A (P/Q-type), 0.2 Hz, read-out: Estimated IC50 (μM) 0.2 Hz
[8] = Table 4 summary, 0.2 Hz, N-type, unit not given in Table 4 (μM in Table 1), read-out: N (IC50 values)
[9] = α1B (N-type), 0.03 Hz, read-out: Estimated IC50 (μM) 0.03 Hz
[10] = α1B (N-type), 0.2 Hz, read-out: Estimated IC50 (μM) 0.2 Hz
[11] = Table 4 summary, 0.2 Hz, L-type, unit not given in Table 4 (μM in Table 3), read-out: L (IC50 values)
[12] = α1C (L-type), 0.03 Hz, read-out: Estimated IC50 (μM) 0.03 Hz
[13] = α1C (L-type), 0.2 Hz, read-out: Estimated IC50 (μM) 0.2 Hz

T1 sequence (Q02294 whole entry): as the sequence (Q02294 whole entry) above
T1 sequence (P54290 25-944 partner limits assumed): as the sequence (P54290 25-944 partner limits assumed) above
T1 sequence (P54290 945-1091 partner limits assumed): as the sequence (P54290 945-1091 partner limits assumed) above
T1 sequence (P54283 whole entry partner): as the sequence (P54283 whole entry partner) above

Row | Structure (SMILES) | IC50 [1] [µM] | IC50 [2, 5] [µM] | % Block (100 nM) 0.03 Hz ([2]; α1A (P/Q-type), 0.03 Hz) [%] | % Block (100 nM) 0.2 Hz ([2]; α1A (P/Q-type), 0.2 Hz) [%] | IC50 [2, 6] [µM] | IC50 [2, 7] [µM] | IC50 [3, 8] [µM] | % Block (100 nM) 0.03 Hz ([3]; α1B (N-type)) [%] | % Block (100 nM) 0.2 Hz ([3]; α1B (N-type)) [%] | IC50 [3, 9] [µM] | IC50 [3, 10] [µM] | IC50 [4, 11] [µM] | % Block (100 nM) 0.03 Hz ([4]; α1C (L-type), 0.03 Hz) [%] | % Block (100 nM) 0.2 Hz ([4]; α1C (L-type), 0.2 Hz) [%] | IC50 [4, 12] [µM] | IC50 [4, 13] [µM]
1 | Nc1ccc(/C=C/C(=O)N2CCN(C(=O)CCCCC(c3ccccc3)c3ccccc3)CC2)cc1 [SH-134] | – | 0.12 | 20 | 45 | 0.45 | 0.12 | 0.15 | 20 | 41 | 0.44 | 0.15 | 0.83 | 11 | 21 | 1.6 | 0.83
2 | c1ccc(CN2CCN(CC(c3ccccc3)C3CCCCC3)CC2)cc1 (stereo not drawn) [Φ, Cy; CHCH2; N; 1; Φ] | ~5 | – | – | – | – | – | – | – | – | – | – | – | – | – | – | –
3 | O=C(/C=C/c1ccc2c(c1)OCO2)N1CCN(C(=O)CCCCC(c2ccccc2)c2ccccc2)CC1 [SH-123B] | – | 0.13 | 16 | 44 | 0.55 | 0.13 | 0.13 | 9 | 45 | 1.27 | 0.13 | 0.74 | 8 | 14 | 2.06 | 0.74
4 | CC(=O)Nc1ccc(/C=C/C(=O)N2CCN(C(=O)CCCCC(c3ccccc3)c3ccccc3)CC2)cc1 [SH-136] | – | 0.15 | 18 | 42 | 0.52 | 0.15 | 0.14 | 14 | 44 | 0.63 | 0.14 | 1.4 | 4 | 8 | 2.8 | 1.4
5 | COc1ccc(/C=C/C(=O)N2CCN(C(=O)CCCCC(c3ccccc3)c3ccccc3)CC2)cc1 [SH-123A] | – | 0.07 | 29 | 61 | 0.26 | 0.07 | 0.09 | 19 | 55 | 0.47 | 0.09 | 0.25 | 21 | 37 | 0.62 | 0.25

Second part, the compound after the results:

Row | IC50 [1] [µM] | IC50 [2, 5] [µM] | % Block (100 nM) 0.03 Hz ([2]; α1A (P/Q-type), 0.03 Hz) [%] | % Block (100 nM) 0.2 Hz ([2]; α1A (P/Q-type), 0.2 Hz) [%] | IC50 [2, 6] [µM] | IC50 [2, 7] [µM] | IC50 [3, 8] [µM] | % Block (100 nM) 0.03 Hz ([3]; α1B (N-type)) [%] | % Block (100 nM) 0.2 Hz ([3]; α1B (N-type)) [%] | IC50 [3, 9] [µM] | IC50 [3, 10] [µM] | IC50 [4, 11] [µM] | % Block (100 nM) 0.03 Hz ([4]; α1C (L-type), 0.03 Hz) [%] | % Block (100 nM) 0.2 Hz ([4]; α1C (L-type), 0.2 Hz) [%] | IC50 [4, 12] [µM] | IC50 [4, 13] [µM] | Structure (SMILES)
6 | 0.75 | – | – | – | – | – | – | – | – | – | – | – | – | – | – | – | O=C(CCCCC(c1ccccc1)c1ccccc1)N1CCC(NCC2CCCCC2)CC1 [Φ, Φ; CH(CH2)4CO; CHNH; 1; Cy]
7 | ~3 | – | – | – | – | – | – | – | – | – | – | – | – | – | – | – | c1ccc(CNC2CCN(CC(c3ccccc3)c3ccccc3)CC2)cc1 [Φ, Φ; CHCH2; CHNH; 1; Φ]
8 | 2 to 3 | – | – | – | – | – | – | – | – | – | – | – | – | – | – | – | c1ccc(C(CCN2CCC(NCC3CCCCC3)CC2)c2ccccc2)cc1 [Φ, Φ; CH(CH2)2; CHNH; 1; Cy]
9 | 35 | – | – | – | – | – | – | – | – | – | – | – | – | – | – | – | O=C(C(c1ccccc1)C1CCCCC1)N1CCN(CC(c2ccccc2)c2ccccc2)CC1 (stereo not drawn) [Φ, Cy; CHCO; N; 1; CHΦ2]
10 | 3 to 4 | – | – | – | – | – | – | – | – | – | – | – | – | – | – | – | c1ccc(C(CN2CCC(NCC3CCCCC3)CC2)c2ccccc2)cc1 [Φ, Φ; CHCH2; CHNH; 1; Cy]

Source: US7064128B2, “Preferentially substituted calcium channel blockers” (NeuroMed Technologies, Inc., priority 1998, dated 2006)
